Source: article PMC11257762, “Psoralen Isolated from the Roots of Dorstenia psilurus Welw. Modulate Th1/Th2 Cytokines and Inflammatory Enzymes in LPS-Stimulated RAW 264.7 Macrophages” (Mediators of Inflammation, 2024)
≈ marks a conversion by molar mass, not a printed value. Read-outs that look alike come from different tables or passages of the source. Marks after values point to notes of the source that are not given here. Each block holds one compound with its values, some of them ahead of it.

Legend:
[1] = system: IFN-γ; assay: Th1/Th2 cytokine measurement (cytometric bead array) in LPS-stimulated RAW 264.7 macrophages, IFN-γ; type: cell-based, mouse; settings: 50 μM, 24 hr, LPS-induced RAW 264.7; reduced from 1.12 pg/mL
Method: (§1) RAW 264.7 cells were cultured at a concentration of 2 × 10^5 cells/mL in a 48-well microplate and allowed to adhere for 24 hr. Subsequently, they were subjected to lipopolysaccharide (LPS) treatment at a concentration of 0.1 µg/mL, along with psoralen at concentrations of 5, 20, and 50 µM. […] Following an incubation period of 24 hr, the supernatant was collected, and the levels of pro-inflammatory Th1 cytokines (IFN-γ, TNF-α, and IL-2), as well as anti-inflammatory Th2 cytokines (IL-4, IL-6, and IL-10) were quantified. The experimental protocol adhered to the manufacturer's guidelines and utilized the BD TM cytometric beads array human Th1/Th2 cytokine kit (BD-Biosciences). Data acquisition was performed using a BD LSR FortessaTM cell analyzer flow cytometer.

[2] = system: TNF-α; assay: Th1/Th2 cytokine measurement (cytometric bead array) in LPS-stimulated RAW 264.7 macrophages, TNF-α; type: cell-based, mouse; settings: 50 μM, 24 hr, LPS-induced RAW 264.7; reduced from 4,418.86 pg/mL
Method: as §1

[3] = target: T1, 15-LOX from G. max (Glycine max, UniProt P08170); assay: Soybean LOX inhibition assay (ferrous oxidation-xylenol orange); type: biochemical; settings: linoleic acid 140 µM, pH 7.4, 25°C, mean ± SD
T1 sequence (P08170 1-839): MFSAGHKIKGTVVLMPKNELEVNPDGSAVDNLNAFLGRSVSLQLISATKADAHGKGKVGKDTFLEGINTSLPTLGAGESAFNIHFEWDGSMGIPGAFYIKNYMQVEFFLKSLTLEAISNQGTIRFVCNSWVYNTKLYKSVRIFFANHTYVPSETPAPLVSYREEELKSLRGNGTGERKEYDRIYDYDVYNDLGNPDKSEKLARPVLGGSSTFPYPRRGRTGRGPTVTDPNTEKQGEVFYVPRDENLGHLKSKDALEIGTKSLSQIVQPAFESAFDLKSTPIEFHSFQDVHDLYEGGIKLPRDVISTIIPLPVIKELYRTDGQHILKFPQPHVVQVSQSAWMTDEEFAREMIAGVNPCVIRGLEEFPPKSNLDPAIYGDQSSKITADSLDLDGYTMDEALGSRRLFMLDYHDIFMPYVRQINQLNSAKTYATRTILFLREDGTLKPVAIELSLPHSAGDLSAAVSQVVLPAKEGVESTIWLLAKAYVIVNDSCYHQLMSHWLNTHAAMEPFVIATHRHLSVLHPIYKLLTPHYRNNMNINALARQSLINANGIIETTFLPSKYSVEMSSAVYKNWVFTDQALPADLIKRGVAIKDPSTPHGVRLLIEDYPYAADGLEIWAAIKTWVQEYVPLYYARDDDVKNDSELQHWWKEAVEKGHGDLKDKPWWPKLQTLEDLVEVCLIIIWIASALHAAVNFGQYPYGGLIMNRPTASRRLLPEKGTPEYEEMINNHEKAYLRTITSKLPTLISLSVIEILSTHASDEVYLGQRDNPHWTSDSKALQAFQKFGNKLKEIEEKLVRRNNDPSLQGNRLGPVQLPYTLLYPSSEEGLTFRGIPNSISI
Method: The assay was conducted following a previously described methodology with minor adjustments. The assay is based on the measurement of the formation of the Fe3+/xylenol orange complex on a spectrophotometer at a wavelength of 560 nm. 15-LOX from G. max was incubated with samples or standard inhibitors at a temperature of 25°C for 5 min. The concentration ranges of the samples ranged from 200 to 1.56 µg/mL for extracts and fractions and from 100 to 0.78 µM for compounds. Subsequently, linoleic acid (at a final concentration of 140 µM) in Tris–HCl buffer (at a pH of 7.4 and a concentration of 50 mM), and the mixture was incubated at a temperature of 25°C for 20 min in the absence of light. The assay was concluded by adding 100 µL of FOX reagent, which consisted of sulfuric acid (at a concentration of 30 mM), xylenol orange (at a concentration of 100 µM), and iron (II) sulfate (at a concentration of 100 µM) in a methanol/water mixture (at a ratio of 9 : 1). For control, only the LOX solution and buffer were pipetted into the wells. The blanks (background) contained the LOX enzyme during incubation, but the substrate (linoleic acid) was added after the addition of the FOX reagent. […] The percentage inhibition was calculated using the following formula: % inhibition = ((Acontrol–Ablank)−(Asample−Ablank)/(Acontrol−Ablank)) ×100. Here, Acontrol represents the absorbance of the control well, Ablank represents the absorbance of the blank well, and Asample represents the absorbance of the sample well.

[4] = system: IL-10; assay: Th1/Th2 cytokine measurement (cytometric bead array) in LPS-stimulated RAW 264.7 macrophages, IL-10; type: cell-based, mouse; settings: 50 μM, 24 hr, LPS-induced RAW 264.7; increased from 0.857 pg/mL
Method: as §1

[5] = system: NO production in LPS-activated RAW 264.7 macrophages; assay: Inhibition of nitric oxide (NO) production in LPS-activated RAW 264.7 macrophages (Griess reagent); type: cell-based, mouse; settings: for IC50: Mus musculus
Method: The mouse-derived macrophage cell line RAW 264.7, purchased from the American Type Culture Collection (ATCC TIB-71, Rockville, MD, USA), was cultured in DMEM medium supplemented with 10% FCS and 1% penicillin/streptomycin/fungizone (PSF) under conventional cell culture conditions at a temperature of 37°C and a carbon dioxide concentration of 5% in a controlled humid atmosphere. Routine maintenance in culture (passage) was performed following ATCC instructions.
The RAW 264.7 macrophage cells were introduced into 96 well microtiter plates at a density of 2 × 10^5 cells/mL. Subsequently, cells were subjected to activation through incubation in a medium consisting of 1 µg/mL LPS alone, acting as the control. Furthermore, lipopolysaccharide was combined with varying concentrations of samples dissolved in DMSO (concentration ranges were 200–1.56 µg/mL for extracts and fractions and 100–0.78 µM for compounds). […] The quantity of nitric oxide released from macrophages was assessed using Griess reagent as previously described. All experiments for the measurement of nitric oxide inhibition were conducted three times in triplicate.

[6] = system: IL-4; assay: Th1/Th2 cytokine measurement (cytometric bead array) in LPS-stimulated RAW 264.7 macrophages, IL-4; type: cell-based, mouse; settings: 50 μM, 24 hr, LPS-induced RAW 264.7; increased from 0.81 pg/mL
Method: as §1

[7] = system: IL-2; assay: Th1/Th2 cytokine measurement (cytometric bead array) in LPS-stimulated RAW 264.7 macrophages, IL-2; type: cell-based, mouse; settings: 50 μM, 24 hr, LPS-induced RAW 264.7; reduced from 1.032 pg/mL
Method: as §1

[8] = target: T2, COX-1 (Mus musculus, UniProt P22437); assay: Fluorometric COX activity assay in LPS-stimulated RAW 264.7 cells, COX-1; type: cell-based; settings: LPS 0.1 µg/mL, 24 hr, untreated control 95.19 µU/mg
T2 construct: endogenous in cells; host or cells: RAW 264.7 macrophages, LPS-stimulated
T2 sequence (P22437 27-602): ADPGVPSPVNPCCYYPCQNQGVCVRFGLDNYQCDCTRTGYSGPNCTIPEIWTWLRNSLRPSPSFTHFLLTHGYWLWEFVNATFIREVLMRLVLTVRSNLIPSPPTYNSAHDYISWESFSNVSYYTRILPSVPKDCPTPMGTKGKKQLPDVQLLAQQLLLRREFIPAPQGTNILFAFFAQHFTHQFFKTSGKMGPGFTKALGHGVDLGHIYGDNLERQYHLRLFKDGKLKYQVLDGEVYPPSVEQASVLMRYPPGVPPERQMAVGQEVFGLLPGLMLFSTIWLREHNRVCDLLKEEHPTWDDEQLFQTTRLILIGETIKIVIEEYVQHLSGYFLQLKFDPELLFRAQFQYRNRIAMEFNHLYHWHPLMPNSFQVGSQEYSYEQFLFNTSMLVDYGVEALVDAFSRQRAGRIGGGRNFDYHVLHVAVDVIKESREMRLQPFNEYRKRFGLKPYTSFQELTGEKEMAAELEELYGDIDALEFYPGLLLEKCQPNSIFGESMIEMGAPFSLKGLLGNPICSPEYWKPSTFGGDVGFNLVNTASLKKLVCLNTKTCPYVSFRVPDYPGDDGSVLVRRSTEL
Method: (§2) Evaluation of COX-1 and COX-2 enzyme activity was performed using the fluorometric COX activity assay kit provided by Biovision. RAW 264.7 cells were cultured at a density of 2 × 10^5 cells/mL in a 48-well microplate and allowed to adhere for a period of 24 hr. Subsequently, cells were treated with LPS at a concentration of 0.1 µg/mL and psoralen at concentrations of 5, 20, and 50 µM. The cyclooxygenase enzyme activity assay was performed after a 24 hr incubation period. To initiate the assay, cells were removed using TNE buffer containing Tris (40 mM), NaCl (150 mM), and EDTA (1 mM), followed by a washing step using 1x PBS. Cells were then resuspended in 1 mL of 1x PBS, transferred to a 1.5 mL tube, and subjected to centrifugation at 500x g for 3 min. The resulting pellet was resuspended in 0.5 mL of lysis buffer containing a protease inhibitor cocktail, followed by vortexing and incubation at 4°C for 5 min. Subsequently, the cell lysate was centrifuged at 12,000 x g for 3 min, and the supernatant was collected for the COX activity assay. The fluorometric cyclooxygenase activity assay kit provided by Biovision was utilized according to the manufacturer's instructions to assess COX activity. This assay incorporates specific inhibitors for COX-1 and COX-2 enzymes, allowing differentiation of their respective activities and those of other peroxidases.

[9] = target: T3, COX-2 (Mus musculus, UniProt Q05769); assay: Fluorometric COX activity assay in LPS-stimulated RAW 264.7 cells, COX-2; type: cell-based; settings: LPS 0.1 µg/mL, 24 hr, untreated control 113.81 µU/mg
T3 construct: the supernatant was collected for the COX activity assay; endogenous in cells; host or cells: RAW 264.7 macrophages, LPS-stimulated
T3 sequence (Q05769 18-604): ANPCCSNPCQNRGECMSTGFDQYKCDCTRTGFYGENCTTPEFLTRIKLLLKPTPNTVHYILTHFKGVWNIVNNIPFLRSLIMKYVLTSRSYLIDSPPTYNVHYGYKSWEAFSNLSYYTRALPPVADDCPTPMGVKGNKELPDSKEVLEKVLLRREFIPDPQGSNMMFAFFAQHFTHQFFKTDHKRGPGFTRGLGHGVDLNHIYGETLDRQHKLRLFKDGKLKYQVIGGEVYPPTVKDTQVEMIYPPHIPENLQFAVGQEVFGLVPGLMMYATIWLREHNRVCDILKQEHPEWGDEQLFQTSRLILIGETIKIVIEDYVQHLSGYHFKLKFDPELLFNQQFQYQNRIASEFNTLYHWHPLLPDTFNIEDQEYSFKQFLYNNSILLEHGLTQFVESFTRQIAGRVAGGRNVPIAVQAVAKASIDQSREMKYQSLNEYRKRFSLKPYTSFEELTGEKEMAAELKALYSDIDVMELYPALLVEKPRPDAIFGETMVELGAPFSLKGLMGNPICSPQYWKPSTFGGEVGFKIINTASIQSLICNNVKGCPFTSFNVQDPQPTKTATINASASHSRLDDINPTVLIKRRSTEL
Method: as §2

[10] = system: IL-6; assay: Th1/Th2 cytokine measurement (cytometric bead array) in LPS-stimulated RAW 264.7 macrophages, IL-6; type: cell-based, mouse; settings: 50 μM, 24 hr, LPS-induced RAW 264.7; increased from 156.96 pg/mL
Method: as §1

[11] = system: NO production in LPS-stimulated RAW 264.7 murine macrophages; parameters: method as in Choi et al. [47]; settings: isolated from Trachelospermum jasminoides, ref Choi et al. [47]; cited from earlier work
[12] = RAW264.7, LPS 1 µg/mL activated RAW 264.7 macrophage cells, mean ± SD, read-out: NO inhibition IC50

- IC50 [3]: 18.4 µM
- COX-1 activity ([8]; psoralen 5 μM): 44.35 µU/mg
- COX-1 activity ([8]; psoralen 20 μM): 31.25 µU/mg
- COX-1 activity ([8]; psoralen 50 μM): 22.73 µU/mg
- COX-2 activity ([9]; psoralen 5 μM): 88.33 µU/mg
- COX-2 activity ([9]; psoralen 20 μM): 58.1 µU/mg
- COX-2 activity ([9]; psoralen 50 μM): 43.84 µU/mg
Compound: O=c1ccc2cc3ccoc3cc2o1 [(1), psoralen]
- IFN-γ level [1]: 0.56 pg/mL
- TNF-α level [2]: 1,032.66 pg/mL
- IL-10 level [4]: 1.122 pg/mL
- IC50 [5, 12]: 1.19 ± 0.45 µg/mL (≈ 6.39 µM)
- IL-4 level [6]: 2.22 pg/mL
- IL-2 level [7]: 0.551 pg/mL
- IL-6 level [10]: 255.31 pg/mL

Compound: COc1ccc2c(c1)c(CC(=O)O)c(C)n2C(=O)c1ccc(Cl)cc1 [Indomethacin, indomethacin, reference compound]
- IC50 ([5]; RAW264.7, read-out: NO inhibition IC50): 3.79 ± 0.88 µg/mL (≈ 10.6 µM)

- 15-LOX inhibition IC50 [3]: 35.57 ± 2.35^j μg/mL
Compound: octadecanyl-3[4-hydroxyphenyl]-prop-2-enoate [(2)]
- NO inhibition IC50 ([5]; LPS 1 µg/mL activated RAW 264.7 macrophage cells, mean ± SD): 39.41 ± 2.29^g μg/mL

Compound: CC[C@H](CC[C@@H](C)[C@H]1CC[C@H]2[C@@H]3CC=C4C[C@@H](O[C@@H]5O[C@H](CO)[C@@H](O)[C@H](O)[C@H]5O)CC[C@]4(C)[C@H]3CC[C@]12C)C(C)C [(3), β-sitosterol glucoside]
- IC50 [3]: 25.3 µM
- IC50 [5, 12]: 26.1 ± 3.01 µg/mL (≈ 45.3 µM)
- Reduction of NO production [11]: 72.8%
